Results on three compounds are retold here after ChEMBL document CHEMBL1201862, “PubChem BioAssay data set” (2004).

Calls of active or inactive are those of the source.

What is called Ki is a measure of affinity in units of concentration, obtained from inhibition or displacement.

Holding throughout (assay type): functional
Assay [1] concerns the target Protein kinase C gamma type (Homo sapiens, UniProt P05129).
Assay [2] deals with Lymphokine-activated killer T-cell-originated protein kinase (Homo sapiens, UniProt Q96KB5).
Assay [3] deals with Protein kinase C zeta type (Homo sapiens, UniProt Q05513).
Assay [4] concerns the target Cyclin-dependent kinase 1 (Homo sapiens, UniProt P06493).
Assay [5] addresses MAP kinase-activated protein kinase 3 (Homo sapiens, UniProt Q16644).
Assay [6] concerns the target Hepatocyte growth factor receptor (Homo sapiens, UniProt P08581).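 Further: kinase panel profiling across the kinome, with MET as the panel member.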
Assay [7] has as its target Mitogen-activated protein kinase kinase kinase kinase 2 (Homo sapiens, UniProt Q12851).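 Further: measured as one member of a kinome-wide kinase panel, with MAP4K2 as the panel entry.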
Assay [8] deals with Tyrosine-protein kinase BTK (Homo sapiens, UniProt Q06187).
In assay [9] the target is cAMP-dependent protein kinase catalytic subunit alpha (Homo sapiens, UniProt P17612).
Assay [10] has as its target Dual specificity mitogen-activated protein kinase kinase 2 (Homo sapiens, UniProt P36507). In words: Navigating the Kinome. Panel member name: MAP2K2.
The target in assay [11] is Serine/threonine-protein kinase pim-1 (Homo sapiens, UniProt P11309).
Assay [12] has as its target Serine/threonine-protein kinase TBK1 (Homo sapiens, UniProt Q9UHD2). Put plainly: Navigating the Kinome. Panel member name: TBK1.
In assay [13] the target is Fibroblast growth factor receptor 1 (Homo sapiens, UniProt P11362).
In assay [14] the target is Rho-associated protein kinase 1 (Homo sapiens, UniProt Q13464).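 Further: measured within a broad kinome-wide panel profiling many kinases.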
Assay [15] deals with 5'-AMP-activated protein kinase catalytic subunit alpha-1 (Homo sapiens, UniProt Q13131).
Assay [16] deals with Glycogen synthase kinase-3 alpha (Homo sapiens, UniProt P49840).
In assay [17] the target is ALK tyrosine kinase receptor (Homo sapiens, UniProt Q9UM73).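 Further: ALK tested as one member of a kinase panel screen.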
Assay [18] has as its target Serine/threonine-protein kinase PAK 4 (Homo sapiens, UniProt O96013).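 Further: value obtained within a kinome profiling panel in which PAK4 was one of the panel members.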
For assay [19], the target named is Insulin-like growth factor 1 receptor (Homo sapiens, UniProt P08069). In words: Navigating the Kinome. Panel member name: IGF1R.
Assay [20] deals with Activin receptor type-1 (Homo sapiens, UniProt Q04771). In words: Navigating the Kinome. Panel member name: ACVR1.
The target of assay [21] is Dual specificity tyrosine-phosphorylation-regulated kinase 1B (Homo sapiens, UniProt Q9Y463). In words: Navigating the Kinome. Panel member name: DYRK1B.
Assay [22] addresses Activated CDC42 kinase 1 (Homo sapiens, UniProt Q07912). Put plainly: Navigating the Kinome. Panel member name: ACK1.
Assay [23] addresses Proto-oncogene tyrosine-protein kinase receptor Ret (Homo sapiens, UniProt P07949).
Assay [24] addresses Tyrosine-protein kinase Fyn (Homo sapiens, UniProt P06241).
Assay [25] concerns the target Receptor-type tyrosine-protein kinase FLT3 (Homo sapiens, UniProt P36888).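 Further: FLT3 was tested as one member of a kinome-wide kinase panel.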
Assay [26] concerns the target Dual specificity protein kinase CLK2 (Homo sapiens, UniProt P49760).
Assay [27] has as its target cAMP-dependent protein kinase catalytic subunit PRKX (Homo sapiens, UniProt P51817).
The target in assay [28] is Dual specificity protein kinase CLK4 (Homo sapiens, UniProt Q9HAZ1).
The target in assay [29] is Tyrosine-protein kinase receptor TYRO3 (Homo sapiens, UniProt Q06418).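 Further: TYRO3 value obtained as one member of a kinome-wide profiling panel.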
The target of assay [30] is Platelet-derived growth factor receptor alpha (Homo sapiens, UniProt P16234). Put plainly: Navigating the Kinome. Panel member name: PDGFRA.
For assay [31], the target named is Macrophage-stimulating protein receptor (Homo sapiens, UniProt Q04912). Put plainly: Navigating the Kinome. Panel member name: MST1R.
Assay [32] concerns the target Calcium/calmodulin-dependent protein kinase type II subunit alpha (Homo sapiens, UniProt Q9UQM7). In words: Navigating the Kinome. Panel member name: CAMK2A.
Assay [33] addresses Protein kinase C theta type (Homo sapiens, UniProt Q04759). Put plainly: Navigating the Kinome. Panel member name: PRKCQ.
For assay [34], the target named is Serine/threonine-protein kinase D3 (Homo sapiens, UniProt O94806).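 Further: determined within a kinase panel screen, with PRKCN as the panel member.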
Assay [35] has as its target Dual specificity mitogen-activated protein kinase kinase 1 (Homo sapiens, UniProt Q02750). In words: Navigating the Kinome. Panel member name: MAP2K1.
Assay [36] addresses Macrophage colony-stimulating factor 1 receptor (Homo sapiens, UniProt P07333).
Assay [37] addresses G protein-coupled receptor kinase 5 (Homo sapiens, UniProt P34947). Put plainly: Navigating the Kinome. Panel member name: GPRK5.
The target of assay [38] is Tyrosine-protein kinase Lck (Homo sapiens, UniProt P06239).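 Further: lck was assayed as one member of a kinase panel.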
Assay [39] has as its target Cyclin-dependent kinase 7 (Homo sapiens, UniProt P50613).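 Further: value comes from a kinome-wide kinase profiling panel in which CDK7 is one member.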
For assay [40], the target named is Vascular endothelial growth factor receptor 1 (Homo sapiens, UniProt P17948).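 Further: measured within a kinome-wide profiling panel, FLT1 as the panel member.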
For assay [41], the target named is Ribosomal protein S6 kinase alpha-3 (Homo sapiens, UniProt P51812).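 Further: measured within a kinome-wide profiling panel.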
Assay [42] concerns the target Focal adhesion kinase 1 (Homo sapiens, UniProt Q05397).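 Further: measured as one member of a kinome panel.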
Assay [43] has as its target Tyrosine-protein kinase JAK3 (Homo sapiens, UniProt P52333).
Assay [44] has as its target Mitogen-activated protein kinase 8 (Homo sapiens, UniProt P45983).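 Further: value comes from one member of a kinome-wide kinase profiling panel.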
For assay [45], the target named is Casein kinase I isoform alpha (Homo sapiens, UniProt P48729).
The target in assay [46] is Leukocyte tyrosine kinase receptor (Homo sapiens, UniProt P29376). In words: Navigating the Kinome. Panel member name: LTK.
For assay [47], the target named is Glycogen synthase kinase-3 beta (Homo sapiens, UniProt P49841).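 Further: value comes from a broad kinome profiling panel, with GSK3B as the panel member.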
Assay [48] concerns the target Dual specificity tyrosine-phosphorylation-regulated kinase 1A (Homo sapiens, UniProt Q13627).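 Further: measured against DYRK1A as one member of a broad kinome profiling panel.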
For assay [49], the target named is Death-associated protein kinase 3 (Homo sapiens, UniProt O43293).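 Further: measured as one member of a kinome-wide profiling panel.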
The target of assay [50] is Mitogen-activated protein kinase 9 (Homo sapiens, UniProt P45984).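 Further: value from a kinome panel profiling assay, MAPK9 panel entry.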
Assay [51] deals with Leucine-rich repeat serine/threonine-protein kinase 2 (Homo sapiens, UniProt Q5S007).
The target in assay [52] is Cyclin-dependent kinase 8 (Homo sapiens, UniProt P49336). Put plainly: Navigating the Kinome. Panel member name: CDK8.
Assay [53] concerns the target Mitogen-activated protein kinase 14 (Homo sapiens, UniProt Q16539).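 Further: part of a kinome-wide panel, MAPK14 entry.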
For assay [54], the target named is Vascular endothelial growth factor receptor 2 (Homo sapiens, UniProt P35968).
For assay [55], the target named is BDNF/NT-3 growth factors receptor (Homo sapiens, UniProt Q16620).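 Further: NTRK2 measured as one member of a broad kinome-wide kinase profiling panel.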
Assay [56] deals with Serine/threonine-protein kinase TAO1 (Homo sapiens, UniProt Q7L7X3).
The target of assay [57] is Inhibitor of nuclear factor kappa-B kinase subunit epsilon (Homo sapiens, UniProt Q14164). In words: Navigating the Kinome. Panel member name: IKBKE.
Assay [58] has as its target Mitogen-activated protein kinase kinase kinase kinase 4 (Homo sapiens, UniProt O95819).
Assay [59] concerns the target Tyrosine-protein kinase JAK2 (Homo sapiens, UniProt O60674).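 Further: JAK2 tested as one member of a kinase panel.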
In assay [60] the target is Cyclin-dependent kinase 19 (Homo sapiens, UniProt Q9BWU1). In words: Navigating the Kinome. Panel member name: CDC2L6.
The target of assay [61] is Cell division cycle 7-related protein kinase (Homo sapiens, UniProt O00311).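 Further: value obtained from a kinome-wide kinase panel.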

Chain of BDNF/NT-3 growth factors receptor (Q16620 whole entry): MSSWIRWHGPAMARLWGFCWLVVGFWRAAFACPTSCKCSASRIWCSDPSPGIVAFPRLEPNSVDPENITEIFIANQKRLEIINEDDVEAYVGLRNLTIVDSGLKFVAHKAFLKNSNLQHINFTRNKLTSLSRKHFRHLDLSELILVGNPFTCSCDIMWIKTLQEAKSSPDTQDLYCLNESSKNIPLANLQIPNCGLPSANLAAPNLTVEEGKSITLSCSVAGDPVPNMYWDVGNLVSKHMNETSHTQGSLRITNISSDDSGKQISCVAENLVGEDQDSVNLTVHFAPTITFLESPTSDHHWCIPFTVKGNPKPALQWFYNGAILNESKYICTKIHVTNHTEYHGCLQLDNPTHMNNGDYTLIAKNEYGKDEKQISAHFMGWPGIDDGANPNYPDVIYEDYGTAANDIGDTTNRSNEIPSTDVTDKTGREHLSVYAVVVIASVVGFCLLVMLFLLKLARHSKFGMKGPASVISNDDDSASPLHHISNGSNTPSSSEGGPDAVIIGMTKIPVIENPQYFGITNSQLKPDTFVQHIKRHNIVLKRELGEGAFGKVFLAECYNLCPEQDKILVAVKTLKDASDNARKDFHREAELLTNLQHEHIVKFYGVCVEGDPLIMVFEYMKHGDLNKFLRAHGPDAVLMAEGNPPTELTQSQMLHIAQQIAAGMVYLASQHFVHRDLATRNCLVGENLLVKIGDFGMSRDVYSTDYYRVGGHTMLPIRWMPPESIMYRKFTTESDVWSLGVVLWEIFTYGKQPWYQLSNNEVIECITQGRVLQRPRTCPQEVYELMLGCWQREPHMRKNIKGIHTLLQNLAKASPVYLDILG
Chain of Serine/threonine-protein kinase PAK 4 (O96013 whole entry): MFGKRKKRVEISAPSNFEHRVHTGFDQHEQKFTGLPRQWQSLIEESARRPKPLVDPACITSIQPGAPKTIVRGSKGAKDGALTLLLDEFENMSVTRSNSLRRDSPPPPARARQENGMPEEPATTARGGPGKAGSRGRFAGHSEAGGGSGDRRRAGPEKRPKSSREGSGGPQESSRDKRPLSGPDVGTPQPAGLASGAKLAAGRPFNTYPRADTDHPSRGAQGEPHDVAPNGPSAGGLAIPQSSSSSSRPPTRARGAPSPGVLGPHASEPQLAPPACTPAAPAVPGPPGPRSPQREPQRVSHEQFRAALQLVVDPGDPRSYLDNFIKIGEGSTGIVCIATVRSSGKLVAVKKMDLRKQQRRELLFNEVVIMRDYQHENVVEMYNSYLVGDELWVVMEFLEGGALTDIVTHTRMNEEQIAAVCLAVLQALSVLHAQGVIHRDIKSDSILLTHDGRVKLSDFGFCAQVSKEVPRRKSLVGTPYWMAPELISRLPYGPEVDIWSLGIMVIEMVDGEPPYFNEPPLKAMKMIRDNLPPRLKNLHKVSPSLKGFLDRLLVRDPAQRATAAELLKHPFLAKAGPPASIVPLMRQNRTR
Chain of Macrophage colony-stimulating factor 1 receptor (P07333 whole entry): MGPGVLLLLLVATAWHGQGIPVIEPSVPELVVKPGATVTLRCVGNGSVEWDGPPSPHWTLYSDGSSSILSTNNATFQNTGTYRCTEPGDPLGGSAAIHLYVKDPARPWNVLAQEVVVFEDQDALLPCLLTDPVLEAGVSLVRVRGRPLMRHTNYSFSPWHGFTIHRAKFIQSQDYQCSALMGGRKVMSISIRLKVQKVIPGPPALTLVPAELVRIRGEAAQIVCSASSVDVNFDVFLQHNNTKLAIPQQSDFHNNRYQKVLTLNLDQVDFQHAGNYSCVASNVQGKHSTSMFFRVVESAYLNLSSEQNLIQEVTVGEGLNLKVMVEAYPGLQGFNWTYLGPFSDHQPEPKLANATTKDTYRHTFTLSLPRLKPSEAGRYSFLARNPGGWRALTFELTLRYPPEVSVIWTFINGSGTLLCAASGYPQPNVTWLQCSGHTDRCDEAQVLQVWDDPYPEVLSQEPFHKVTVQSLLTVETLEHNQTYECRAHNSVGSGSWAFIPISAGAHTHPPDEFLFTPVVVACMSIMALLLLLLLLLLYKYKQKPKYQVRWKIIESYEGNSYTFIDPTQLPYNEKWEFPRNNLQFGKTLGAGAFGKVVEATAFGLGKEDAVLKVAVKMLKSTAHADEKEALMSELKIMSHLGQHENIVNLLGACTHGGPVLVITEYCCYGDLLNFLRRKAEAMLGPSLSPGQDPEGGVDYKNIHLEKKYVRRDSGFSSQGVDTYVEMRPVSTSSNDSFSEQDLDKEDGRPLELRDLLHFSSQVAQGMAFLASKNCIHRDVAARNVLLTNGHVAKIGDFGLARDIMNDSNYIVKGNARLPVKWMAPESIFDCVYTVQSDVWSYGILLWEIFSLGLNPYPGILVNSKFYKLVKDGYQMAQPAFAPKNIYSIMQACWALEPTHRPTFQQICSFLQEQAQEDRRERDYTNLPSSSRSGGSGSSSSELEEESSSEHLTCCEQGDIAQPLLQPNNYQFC
Chain of Cyclin-dependent kinase 7 (P50613 whole entry): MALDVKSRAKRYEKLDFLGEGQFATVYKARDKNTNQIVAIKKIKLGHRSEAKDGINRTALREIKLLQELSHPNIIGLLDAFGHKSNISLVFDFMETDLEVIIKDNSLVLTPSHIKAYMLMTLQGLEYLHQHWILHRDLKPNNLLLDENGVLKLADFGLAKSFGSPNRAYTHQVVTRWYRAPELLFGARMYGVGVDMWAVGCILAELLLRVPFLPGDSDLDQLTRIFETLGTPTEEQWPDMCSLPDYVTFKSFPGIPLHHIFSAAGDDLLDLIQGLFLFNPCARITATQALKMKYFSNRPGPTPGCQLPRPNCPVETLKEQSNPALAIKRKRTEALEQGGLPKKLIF
Chain of Dual specificity protein kinase CLK2 (P49760 whole entry): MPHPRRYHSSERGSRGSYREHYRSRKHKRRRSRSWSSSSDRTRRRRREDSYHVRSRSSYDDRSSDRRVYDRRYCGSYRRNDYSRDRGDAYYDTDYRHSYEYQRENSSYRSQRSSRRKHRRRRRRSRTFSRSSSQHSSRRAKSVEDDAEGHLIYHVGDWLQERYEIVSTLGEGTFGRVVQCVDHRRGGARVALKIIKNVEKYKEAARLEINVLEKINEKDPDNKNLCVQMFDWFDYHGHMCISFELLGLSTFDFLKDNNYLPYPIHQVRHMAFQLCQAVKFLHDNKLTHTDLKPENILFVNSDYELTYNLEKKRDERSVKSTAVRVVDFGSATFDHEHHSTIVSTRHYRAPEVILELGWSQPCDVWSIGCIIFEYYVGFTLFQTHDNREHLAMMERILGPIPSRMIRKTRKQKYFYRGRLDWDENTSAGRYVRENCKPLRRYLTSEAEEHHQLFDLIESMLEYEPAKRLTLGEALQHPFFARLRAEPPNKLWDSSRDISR
Chain of Proto-oncogene tyrosine-protein kinase receptor Ret (P07949 whole entry): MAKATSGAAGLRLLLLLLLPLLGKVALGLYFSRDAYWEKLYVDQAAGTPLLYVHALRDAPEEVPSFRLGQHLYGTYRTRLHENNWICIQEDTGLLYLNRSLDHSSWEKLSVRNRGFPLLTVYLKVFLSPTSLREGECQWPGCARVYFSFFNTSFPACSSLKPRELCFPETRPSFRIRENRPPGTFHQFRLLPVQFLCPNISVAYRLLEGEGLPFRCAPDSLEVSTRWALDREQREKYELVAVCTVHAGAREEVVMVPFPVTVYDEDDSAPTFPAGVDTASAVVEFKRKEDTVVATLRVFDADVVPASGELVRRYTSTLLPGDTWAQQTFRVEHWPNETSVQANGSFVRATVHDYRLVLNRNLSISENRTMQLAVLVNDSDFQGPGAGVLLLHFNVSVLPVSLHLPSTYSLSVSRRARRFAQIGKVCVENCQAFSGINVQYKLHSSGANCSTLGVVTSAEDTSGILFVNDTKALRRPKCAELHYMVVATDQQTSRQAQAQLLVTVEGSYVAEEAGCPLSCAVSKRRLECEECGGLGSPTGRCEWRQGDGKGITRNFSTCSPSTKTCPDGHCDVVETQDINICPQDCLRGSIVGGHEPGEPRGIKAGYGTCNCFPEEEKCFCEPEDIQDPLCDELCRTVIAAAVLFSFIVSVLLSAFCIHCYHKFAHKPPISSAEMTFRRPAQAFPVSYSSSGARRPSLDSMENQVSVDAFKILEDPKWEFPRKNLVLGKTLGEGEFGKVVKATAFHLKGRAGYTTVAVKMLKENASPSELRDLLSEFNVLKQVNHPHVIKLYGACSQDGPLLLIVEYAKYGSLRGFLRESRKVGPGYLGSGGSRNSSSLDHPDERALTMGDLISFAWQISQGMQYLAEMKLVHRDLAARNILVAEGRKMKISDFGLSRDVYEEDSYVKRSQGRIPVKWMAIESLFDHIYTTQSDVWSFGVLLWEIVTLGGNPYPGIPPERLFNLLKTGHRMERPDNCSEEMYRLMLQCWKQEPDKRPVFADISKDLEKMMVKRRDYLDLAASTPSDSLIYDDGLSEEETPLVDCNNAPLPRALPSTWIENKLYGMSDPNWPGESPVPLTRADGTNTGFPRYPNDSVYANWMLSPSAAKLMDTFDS

`Oc1cccc(-c2nc(N3CCOCC3)c3oc4ncccc4c3n2)c1` [PI-103]: the Ki was > 7.94 µM (inactive) in assay [1]; > 10 µM (inactive) in [2]; > 7.94 µM (inactive) in [3]; > 7.94 µM (inactive) in [4]; > 10 µM (inactive) in assay [5].
Turning to `CC(C)Oc1cc(Nc2nc(NC(C)c3ccc(F)cn3)ncc2Cl)n[nH]1` (stereo unspecified), the Ki in [6] was > 2.51 µM (inactive); in [7], > 2.51 µM (inactive); in assay [8], 1 µM (active); in assay [9], > 1.26 µM (inactive); in [10], > 3.98 µM (inactive); in [11], > 6.31 µM (inactive). The Ki in [12] is > 3.16 µM (inactive); in [13], 25.1 nM (active); in assay [14] it was 2 µM (active); in [15] it was 158 nM (active); in [16] it was > 3.98 µM (inactive); in assay [17], 126 nM (active). Also, the Ki is > 5.01 µM (inactive) in assay [18]; 1.26 µM (active) in [19]; 1.58 µM (active) in assay [20]; > 2.51 µM (inactive) in assay [21]; 25.1 nM (active) in [22]; 39.8 nM (active) in assay [23]. Also, the Ki in [24] is 398 nM (active); in assay [25], 316 nM (active); in [26], 2.51 µM (active); in assay [27] it was > 3.16 µM (inactive); in [28], 501 nM (active); in assay [29] it was > 3.16 µM (inactive). The Ki in [30] was > 2.51 µM (inactive); in assay [31], 200 nM (active); in assay [32], 316 nM (active); in [33], 501 nM (active); in assay [34], > 3.98 µM (inactive); in assay [35] it was > 3.16 µM (inactive). In addition, the Ki in assay [36] is > 2.51 µM (inactive); in assay [37], > 3.98 µM (inactive); in assay [38] it was 398 nM (active); in assay [39] it was 316 nM (active); in assay [40] it was 1.58 µM (active); in [41], > 3.98 µM (inactive). Further, the Ki in assay [42] is 31.6 nM (active); in assay [43], 2 µM (active); in assay [44], > 5.01 µM (inactive); in assay [45], 1 µM (active); in assay [46] it was 31.6 nM (active); in assay [47] it was > 3.98 µM (inactive). Besides, the Ki in assay [48] was > 2 µM (inactive); in assay [49], > 5.01 µM (inactive); in [50] it was > 3.98 µM (inactive); in assay [51], 1 µM (active); in assay [52], > 3.98 µM (inactive); in [53] it was > 3.98 µM (inactive). In addition, the Ki in assay [54] is 501 nM (active); in [55] it was 1 nM (active); in [56] it was 2.51 µM (active); in assay [57], > 3.16 µM (inactive); in assay [58], > 5.01 µM (inactive); in assay [59], 100 nM (active).
As for `Cn1ncc2cc(Nc3ccnc(N)n3)ccc21`, the Ki in assay [60] is > 100 µM (inactive); in assay [61] it was 398 nM (active).
